Assay results from patent publication US20080207708A1, “Oxazole and Thiazole Compounds and Their Use in the Treatment of Pge2 Mediated Disorders” (GLAXO GROUP LIMITED, priority 2005, published 2008).
Counter-ions that a name gives are not always drawn.

Key:
EP1 receptors [1] = biological target: T1, EP1 receptors (Homo sapiens, UniProt P34995); assay: Binding assay for the human prostanoid EP1 receptor (competition with [3H]-PGE2); design: expressed in transfected cells; host or cells: CHO-K1 cells, membrane fraction; conditions: [3H]-PGE2 competition; averages of a number of experiments; read-out: pIC50 value, binding assay for the human prostanoid EP1 receptor (converted)
T1 sequence (P34995 1-402): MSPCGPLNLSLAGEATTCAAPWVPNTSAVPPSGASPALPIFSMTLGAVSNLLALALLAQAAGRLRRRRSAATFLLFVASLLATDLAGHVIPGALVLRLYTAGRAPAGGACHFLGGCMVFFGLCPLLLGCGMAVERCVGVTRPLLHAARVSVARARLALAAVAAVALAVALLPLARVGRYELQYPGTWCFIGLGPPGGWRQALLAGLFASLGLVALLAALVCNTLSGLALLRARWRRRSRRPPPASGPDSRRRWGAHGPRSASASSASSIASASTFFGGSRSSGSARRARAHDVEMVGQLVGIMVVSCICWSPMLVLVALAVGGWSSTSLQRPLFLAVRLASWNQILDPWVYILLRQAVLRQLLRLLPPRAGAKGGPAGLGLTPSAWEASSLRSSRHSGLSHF
Summary of the method: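 Competition against 3 nM (final) tritiated PGE2 at 30° C for 30 min, pH 6 MES assay buffer, using membranes of stably transfected CHO-K1 cells. Filter-retained counts by scintillation; nonlinear curve fitting gives concentration inhibiting 50% of specific binding.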

EP1 receptors [2] = biological target: T1, EP1 receptors; assay: human EP1 calcium mobilisation assay (CHO-K1 cells, FLIPR, PGE2); format: cell-based; design: expressed in transfected cells; host or cells: CHO-K1 cells, pCIN vector; conditions: free bases or sodium salts; averages of a number of experiments; read-out: functional pKi value, human EP1 calcium mobilisation assay (converted)
Description: Briefly, the antagonist properties of compounds are assessed by their ability to inhibit the mobilisation of intracellular calcium ([Ca^2+]i) in response to activation of EP1 or EP3 receptors by the natural agonist hormone prostaglandin E2 (PGE2). Increasing concentrations of antagonist reduce the amount of calcium that a given concentration of PGE2 can mobilise. The net effect is to displace the PGE2 concentration-effect curve to higher concentrations of PGE2. The amount of calcium produced is assessed using a calcium-sensitive fluorescent dye such as Fluo-4, AM and a suitable instrument such as a Fluorimetric Imaging Plate Reader (FLIPR). Increasing amounts of [Ca^2+]i produced by receptor activation increase the amount of fluorescence produced by the dye and give rise to an increasing signal. The signal may be detected using the FLIPR instrument and the data generated may be analysed with suitable curve-fitting software.
The human EP1 or EP3 calcium mobilisation assay (hereafter referred to as ‘the calcium assay’) utilises Chinese hamster ovary-K1 (CHO-K1) cells into which a stable (pCIN; BioTechniques 20 (1996): 102-110) vector containing either EP1 or EP3 cDNA has previously been transfected. Cells are cultured in suitable flasks containing culture medium such as DMEM:F-12 supplemented with 10% v/v foetal calf serum, 2 mM L-glutamine, 0.25 mg/ml geneticin, 100 μM flurbiprofen and 10 µg/ml puromycin. For assay, cells are harvested using a proprietary reagent that dislodges cells such as Versene. Cells are re-suspended in a suitable quantity of fresh culture media for introduction into a 384-well plate. Following incubation for 24 hours at 37° C. the culture media is replaced with a medium containing Fluo-4 and the detergent pluronic acid, and a further incubation takes place. Concentrations of compounds are then added to the plate in order to construct concentration-effect curves. This may be performed on the FLIPR in order to assess the agonist properties of the compounds. Concentrations of PGE2 are then added to the plate in order to assess the antagonist properties of the compounds. The data so generated may be analysed by means of a computerised curve-fitting routine. The concentration of compound that elicits a half-maximal inhibition of the calcium mobilisation induced by PGE2 (pIC50) may then be estimated.

Row | IC50 (EP1 receptors [1]) [nM] | Ki (EP1 receptors [2]) [nM] | Compound
1 | ≤ 1000 | > 1000 | CC(C)(C)OC(=O)Nc1csc(Cc2cc(Cl)ccc2OCc2ccccc2)n1 [Example 110, 1,1-Dimethylethyl [2-({5-chloro-2-[(phenylmethyl)oxy]phenyl}methyl)-1,3-thiazol-4-yl]carbamate]
2 | ≤ 1000 | < 1000 | CC(C)COc1ccc(Cl)cc1Cc1nc(NC(=O)OC(C)(C)C)cs1 [Example 111, 1,1-Dimethylethyl [2-({5-chloro-2-[(2-methylpropyl)oxy]phenyl}methyl)-1,3-thiazol-4-yl]carbamate]
3 | ≤ 1000 | > 1000 | O=C(Nc1csc(Cc2cc(Cl)ccc2OCc2ccccc2)n1)c1ccc(CO)cc1 [Example 112, N-[2-({5-chloro-2-[(phenylmethyl)oxy]phenyl}methyl)-1,3-thiazol-4-yl]-4-(hydroxymethyl)benzamide]
4 | ≤ 1000 | < 1000 | O=C(Nc1csc(Cc2cc(Cl)ccc2OCc2ccccc2)n1)c1ccc(CN2CCCCC2)cc1 [Example 113, N-[2-({5-Chloro-2-[(phenylmethyl)oxy]phenyl}methyl)-1,3-thiazol-4-yl]-4-(1-piperidinylmethyl)benzamide]
5 | ≤ 1000 | < 1000 | CN1CCN(Cc2ccc(C(=O)Nc3csc(Cc4cc(Cl)ccc4OCc4ccccc4)n3)cc2)CC1 [Example 114, N-[2-({5-chloro-2-[(phenylmethyl)oxy]-phenyl}methyl)-1,3-thiazol-4-yl]-4-[(4-methyl-1-piperazinyl)methyl]-benzamide]
6 | ≤ 31.6 | < 1000 | CN1CCN(CCc2ccc3nc(-c4csc(Cc5cc(Cl)ccc5OCc5ccccc5)n4)[nH]c3c2)CC1 [Example 115, 2-[2-({5-chloro-2-[(phenylmethyl)oxy]-phenyl}methyl)-1,3-thiazol-4-yl]-5-[2-(4-methyl-1-piperazinyl)ethyl]-1H-benzimidazole]
7 | ≤ 31.6 | < 1000 | CC(C)COc1ccc(Cl)cc1Cc1nc(-c2nc3ccc(CCN(C)C)cc3[nH]2)cs1 [Example 116, (2-{2-[2-({5-Chloro-2-[(2-methylpropyl)oxy]-phenyl}methyl)-1,3-thiazol-4-yl]-1H-benzimidazol-5-yl}ethyl)dimethylamine]
8 | ≤ 31.6 | < 1000 | CC(C)COc1ccc(Cl)cc1Cc1nc(-c2nc3ccc(CCN4CCN(C)CC4)cc3[nH]2)cs1 [Example 117, 2-[2-({5-Chloro-2-[(2-methylpropyl)oxy]phenyl}-methyl)-1,3-thiazol-4-yl]-5-(2-(4-methyl-1-piperazinyl)ethyl]-1H-benzimidazole]
9 | ≤ 1000 | > 1000 | CN(C)Cc1ccc(NC(=O)c2csc(Cc3cc(Cl)ccc3OCc3ccccc3)n2)cc1 [Example 118, 2-({5-Chloro-2-[(phenylmethyl)oxy]phenyl}methyl)-N-{4-[(dimethylamino)methyl]phenyl}-1,3-thiazole-4-carboxamide hydrochloride]
10 | ≤ 1000 | > 1000 | O=C(Nc1ccc(CN2CCCC2)cc1)c1csc(Cc2cc(Cl)ccc2OCc2ccccc2)n1 [Example 119, 2-({5-Chloro-2-[(phenylmethyl)oxy]phenyl}-methyl)-N-[4-(1-pyrrolidinylmethyl)phenyl]-1,3-thiazole-4-carboxamidehydrochloride]
11 | ≤ 1000 | > 1000 | O=C(Nc1ccc(CN2CCOCC2)cc1)c1csc(Cc2cc(Cl)ccc2OCc2ccccc2)n1 [Example 120, 2-({5-Chloro-2-[(phenylmethyl)oxy]phenyl}-methyl)-N-[4-(4-morpholinylmethyl)phenyl]-1,3-thiazole-4-carboxamidehydrochloride]
12 | ≤ 1000 | > 1000 | O=C(Nc1ccc(CN2CCCCC2)cc1)c1csc(Cc2cc(Cl)ccc2OCc2ccccc2)n1 [Example 121, 2-({5-Chloro-2-[(phenylmethyl)oxy]phenyl}-methyl)-N-[4-(1-piperidinylmethyl)phenyl]-1,3-thiazole-4-carboxamidehydrochloride]
13 | ≤ 31.6 | < 1000 | CC(C)COc1ccc(Cl)cc1Cc1nc(-c2nc3ccc(CN(C)C)cc3[nH]2)cs1 [Example 124, ({2-[2-({5-Chloro-2-[(2-methylpropyl)oxy]phenyl}-methyl)-1,3-thiazol-4-yl]-1H-benzimidazol-5-yl}methyl)dimethylaminehydrochloride]
14 | ≤ 31.6 | < 1000 | CC(C)COc1ccc(Cl)cc1Cc1nc(-c2nc3ccc(CN4CCOCC4)cc3[nH]2)cs1 [Example 125, 2-[2-({5-Chloro-2-[(2-methylpropyl)oxy]phenyl}-methyl)-1,3-thiazol-4-yl]-5-(4-morpholinylmethyl)-1H-benzimidazolehydrochloride]
15 | ≤ 31.6 | < 1000 | CNCc1ccc2nc(-c3csc(Cc4cc(Cl)ccc4OCC(C)C)n3)[nH]c2c1 [Example 126, ({2-[2-({5-Chloro-2-[(2-methylpropyl)oxy]phenyl}-methyl)-1,3-thiazol-4-yl]-1H-benzimidazol-5-yl}methyl)methylaminehydrochloride]
16 | ≤ 1000 | > 1000 | CC(=O)Nc1csc(Cc2cc(Cl)ccc2OCc2ccccc2)n1 [Example 127, N-[2-({5-Chloro-2-[(phenylmethyl)oxy]phenyl}methyl)-1,3-thiazol-4-yl]acetamide]
17 | ≤ 1000 | > 1000 | CCC(=O)Nc1csc(Cc2cc(Cl)ccc2OCc2ccccc2)n1 [Example 128]
18 | ≤ 1000 | < 1000 | CC(C)C(=O)Nc1csc(Cc2cc(Cl)ccc2OCc2ccccc2)n1 [Example 129, N-[2-({5-Chloro-2-[(phenylmethyl)oxy]phenyl}methyl)-1,3-thiazol-4-yl]-2-methylpropanamide]
19 | ≤ 1000 | < 1000 | O=C(Cc1ccccc1)Nc1csc(Cc2cc(Cl)ccc2OCc2ccccc2)n1 [Example 130, N-[2-({5-Chloro-2-[(phenylmethyl)oxy]phenyl}methyl)-1,3-thiazol-4-yl]-2-phenylacetamide]
20 | ≤ 1000 | < 1000 | Clc1ccc(OCc2ccccc2)c(Cc2nc(-c3nc4ccccc4[nH]3)cs2)c1 [Example 131, 2-[2-({5-Chloro-2-[(phenylmethyl)oxy]phenyl}methyl)-1,3-thiazol-4-yl]-1H-benzimidazole]
21 | ≤ 31.6 | < 1000 | CC(C)COc1ccc(Cl)cc1Cc1nc(-c2nc3ncccc3[nH]2)cs1 [Example 132, 2-[2-({5-Chloro-2-[(2-methyl-propyl)oxy]-phenyl}methyl)-1,3-thiazol-4-yl]-1H-imidazo[4,5-b]pyridine]
22 | ≤ 1000 | < 1000 | Clc1ccc(OCc2ccccc2)c(Cc2nc(-c3nc4ncccc4[nH]3)cs2)c1 [Example 133, 2-[2-({5-Chloro-2-[(phenylmethyl)oxy]phenyl}methyl)-1,3-thiazol-4-yl]-1H-imidazo[4,5-b]pyridine]
23 | ≤ 1000 | < 1000 | Clc1ccc(OCc2ccccc2)c(Cc2nc(-c3nc4ncc(Br)cc4[nH]3)cs2)c1 [Example 134, 6-Bromo-2-[2-({5-chloro-2-[(phenylmethyl)oxy]phenyl}methyl)-1,3-thiazol-4-yl]-1H-imidazo[4,5-b]pyridine]
24 | ≤ 31.6 | ≤ 31.6 | CC(C)COc1ccc(Cl)cc1Cc1nc(-c2nc3cnccc3[nH]2)cs1 [Example 135, 2-[2-({5-Chloro-2-[(2-methyl-propyl)oxy]-phenyl}methyl)-1,3-thiazol-4-yl]-1H-imidazo[4,5-c]pyridinehydrochloride]
